The test system of data set [1] is purified bovine brain tubulin. In words: In vitro microtubule dynamics (dynamic instability) assay, video microscopy. The format is biochemical. On the procedure: Tubulin Purification and Microtubule Dynamics Assays. Tubulin was purified, as described in the literature (“Kinetic stabilization of microtubule dynamic instability in vitro by vinblastine”, Toso, R. J., Jordan, […]., Matsumoto, B. and Wilson, L., Biochemistry, 1993, 32, 1285-1293). Briefly, microtubule-associated protein-rich bovine brain microtubule protein was prepared by three cycles of assembly and disassembly. Tubulin was purified from other microtubule proteins by elution through a Whatman P-11 phosphocellulose column equilibrated in PEM50 (50 mM Pipes, 1 mM MgSO4, 1 mM EGTA, 0.1 mM GTP). Purified tubulin (>99% pure) was drop-frozen in liquid nitrogen and stored at -70° C. […] The dynamics of individual microtubules were recorded at 37° C. using differential interference contrast enhanced video microscopy. The ends were designated as plus or minus on the basis of the growth rate, the number of microtubules that grew at opposite ends of the seeds, and the relative lengths of the microtubules (Panda, D., Goode, […]. and Wilson, L., Kinetic stabilization of microtubule dynamics at steady state by tau and microtubule-binding domains of tau, Biochemistry, 1995, 34, 11117-11127; Walker, R. A., O'Brien, […]., Voter, W. A., Erickson, H. P. and Salmon, E. D., Dynamic instability of individual microtubules analyzed by video light microscopy: rate constants and transition frequencies, J. Cell Biol. 1988, 107, 1437-1448). Plus ends were analyzed for 10 minutes per slide during the steady-state phase of polymerization ( 45 min after initiation of polymerization). Life histories of individual microtubules were collected as described by Panda et al. 1995 (Panda, D., Goode, […]. and Wilson, L., Kinetic stabilization of microtubule dynamics at steady state by tau and microtubule-binding domains of tau, Biochemistry, 1995, 34 11117-11127) with modifications. Data points were collected at 1-3 s intervals. […] Average rates, lengths and durations are the averages of independent events. The catastrophe frequency was calculated by dividing the number of shortening events by the total time of growth and attenuation tracked, and rescue frequency was calculated by dividing the number of rescue events by the total time of shortening tracked. To control for experimental error, each condition was filmed over multiple days using at least two distinct tubulin/GTP mixtures (2-3 slides each). No gross variation in microtubule dynamics was observed between mixtures or slides of a given condition. The concentration of drug used in dynamic instability assays was chosen by initially observing microtubules stabilized with half the concentration used in microtubule assembly assays.

In data set [2] the test system is purified bovine brain tubulin. Kind of data set: In vitro microtubule assembly assay with pure (MAP-free) tubulin, light scattering OD400. It is filed as biochemical. How it is done: Microtubule Assembly Assays. Microtubule seeds were synthesized by incubating purified bovine brain tubulin with 1 mM GTP, 10% glycerol and 10% DMSO at 35° C. for 30 minutes, followed by shearing by passing the assembled microtubules 6 times through a 27 gauge needle. Microtubule assembly was assayed by adding 27.5 ul of microtubule seeds to spectrophotometer cuvettes (maintained at 35° C.) containing 247.5 ul purified bovine brain tubulin in a PEM-100 buffer (100 mM Pipes pH=6.8, 1 mM […], 1 mM MgSO4) supplemented with 1 mM GTP (and drug where applicable) and monitoring the OD400 for 2 hours. Since the compounds are dissolved in DMSO and DMSO can have a significant effect on microtubule assembly, DMSO was added to all cuvettes so as to equal the largest volume of drug added to reactions. It should be noted that the initial velocity of the microtubule assembly reactions is so fast that one can not always catch the initial rise on the light scattering profile because it is occurring while samples are being prepared. However, all samples start at the same optical density, since they are identical with the exception of the drug being introduced.

The subject of data set [3] is Bcap-37 human breast cancer. In words: Bcap-37 human breast cancer xenograft in nude mice, dosing from 24 h after transplantation (Example 3). The format is in vivo. Conditions: for tumor inhibition rate %: vs solvent control. The source says: Both male and female mice were used. […] Test control. […] Preparation and Administration of Test Compounds. […] For human tumor xenograft model, all used materials, including animal food, animal cage, supporting materials and apparatus contacted by animals, were high-pressure sterilized. Nude mice were maintained in laminar flow shelves under SPF condition. After tumor transplantation, mouse weight and tumor size in each compound dosage group were dynamically monitored and plotted.
(In general: In xenograft studies the graft and the host belong to different species.)

The test system of data set [4] is mouse Lewis lung cancer. In words: In vivo antitumor efficacy, mouse Lewis lung cancer model, Example 2 (DBTS, CTX, Taxol reference).
The subject of data set [5] is ao10/17 human ovarian cancer. Kind of data set: ao10/17 human ovarian cancer xenograft in nude mice (Example 4). The format is in vivo. The following applies: 10 mg/kg iv x7 qd; 7 D after transplantation.
Where [6] appears, read: 50 mg/kg iv x7 qd, 7 days after transplantation.
Setting [7] is: 10 mg/kg iv x7 qd, 7 days after transplantation.

Values joined by “and” are separate entries in the source; they are usually repeats but may differ in a detail not shown here. Equal values may be shown once. Marks after values point to notes of the source that are not given here.

Regarding `Cc1cccc(CSSSCc2cccc(C)c2)c1` [ACEA100116, di(m-methylbenzyl)trisulfide], in data set [1] (plus ends, steady state), the “Effect on length of growth events” value is “little effect upon the length of growing events”, the “Effect on length of shortening events” value was “strong effect upon the length of shortening events”, the “Effect on microtubule growth rate” value was “increased the growth rate” and the “Effect on rate of shortening” value is on record as “no effect upon the rate of shortening”. Also, the “Effect on microtubule assembly” value in data set [2] (9 uM and 27 uM) was “promotes microtubule assembly”.
Regarding `c1ccc(CSSSCc2ccccc2)cc1` [DBTS, Dibenzyl trisulfide], in data set [3] (setting [6]), the “Mice with palpable tumor / total mice” value is on record as 2/6†† and the “Tumor volume (cm^3)” value is 0.01 cm^3. In data set [3] (50 mg/kg iv x7 qd, 14 d), the “Tumor volume (cm^3)” value worked out at 0.014 ± 0.01 cm^3. Further, the “Tumor volume (cm^3)” value in data set [3] (50 mg/kg iv x7 qd, 21 d) came to 0.079 ± 0.01 cm^3. Besides, the “Tumor volume (cm^3)” value in data set [3] (50 mg/kg iv x7 qd, 24 d (end), listed as ACEA100101) is 0.196 cm^3 and 0.196 ± 0.02 cm^3. In data set [3] (50 mg/kg/d iv x7 qd), the “TV inhibition rate % T/C” value is 11.17%, the “Tumor weight” value is given as 0.568 ± 0.07 g and the “tumor inhibition rate %” value is given as 66.98%. In addition, the “Body weight of mice” value in data set [3] (50 mg/kg/d iv x7 qd, 0 day (beginning), listed as ACEA100101) is 18.0 g and 18 ± 1 g. Moreover, in data set [3] (50 mg/kg/d iv x7 qd, 7 day), the “Body weight of mice” value is recorded as 18.7 ± 0.8 g. For the same molecule, the “Body weight of mice” value in data set [3] (50 mg/kg/d iv x7 qd, 14 d) amounted to 20.3 ± 0.8 g. For the same molecule, the “Body weight of mice” value in data set [3] (50 mg/kg/d iv x7 qd, 21 d) turned out to be 22 ± 0.6 g. The “Body weight of mice” value in data set [3] (50 mg/kg/d iv x7 qd, 24 d (end), listed as ACEA100101) was 22.8 g and 22.8 ± 1.6 g. Also, in data set [1] (DBTS .1uM), the “% time spent in attenuation phase” value stood at 52%, the “% time spent in growth phase” value stood at 45%, the “% time spent in shortening phase” value was found to be 3% and the Dynamicity amounted to 1.72 um/min. Also, in data set [1] (DBTS .1uM), the “Frequency of transitions ± SD: Catastrophes” value was 0.17 ± 0.04 events/min, the “Frequency of transitions ± SD: Rescues” value amounted to 5.3 ± 1.3 events/min, the “Frequency of transitions ± SD: Total” value turned out to be 0.50 ± 0.07 events/min and the “Growth Rate ± SEM” value is reported as 1.55 ± 0.1 um/min. For the same molecule, in data set [1] (DBTS .1uM), the “Mean duration of attenuation ± SEM” value came out at 2.15 ± 0.3 and the “Shortening Rate ± SEM” value was found to be 35.40 ± 6.0 um/min. For the same molecule, in data set [1] (growth events, DBTS .1uM), the “Duration of Event” value was 2.21 ± 0.3 min and the “Length of Excursion” value is listed as 3.34 ± 0.3 um. In addition, in data set [1] (plus ends, steady state), the “Effect on duration of growth events” value was “increase the average duration of growth events”; the “Effect on length of growth events” value is “increase the average duration of growth events and consequently the average length grown in a growth event”; the “Effect on length of shortening events” value is listed as “reduced”; the “Effect on microtubule growth rate” value is reported as “did not affect the microtubule growth rate”. Further, the “Effect on percentage of time spent growing” value in data set [1] (plus ends, steady state) is on record as “increased the percentage of time spent growing”. Further, in data set [1] (shortening events, DBTS .1uM), the “Duration of Event” value was 0.17 ± 0.04 min and the “Length of Excursion” value turned out to be 6.02 ± 0.3 um. For the same molecule, in data set [2] (all doses (especially prominent at 9 uM)), the “Effect on extent of microtubule assembly” value is “inhibit the extent of microtubule assembly significantly”. For the same molecule, in data set [4] (12.5 mg/kg/d iv x10 qd), the “Tumor weight” value came to 1.59 ± 0.16 g. In addition, in data set [4] (12.5 mg/kg/d iv x10 qd, vs 5% solvent control), the “tumor inhibition rate %” value turned out to be 35.10%. Moreover, the “tumor inhibition rate %” value in data set [4] (12.5 mg/kg/d iv x10 qd, vs normal saline control) was 43.10% and 43.01%. For the same molecule, the “Tumor weight” value in data set [4] (25 mg/kg/d iv x10 qd) was 1.35 ± 0.10 g. In addition, the “tumor inhibition rate %” value in data set [4] (25 mg/kg/d iv x10 qd, vs 5% solvent control) was determined as 46.94%. The “tumor inhibition rate %” value in data set [4] (25 mg/kg/d iv x10 qd, vs normal saline control) is listed as 51.61%. Besides, in data set [4] (50 mg/kg/d iv x10 qd), the “Tumor weight” value is given as 0.955 ± 0.20 g. In addition, the “tumor inhibition rate %” value in data set [4] (50 mg/kg/d iv x10 qd, vs 5% solvent control) is 61.02%. The “tumor inhibition rate %” value in data set [4] (50 mg/kg/d iv x10 qd, vs normal saline control) was 65.77% and 65%.
In the case of `CC(=O)O[C@H]1C(=O)[C@@]2(C)[C@H]([C@H](OC(=O)c3ccccc3)[C@]3(O)C[C@H](OC(=O)[C@H](O)[C@@H](NC(=O)c4ccccc4)c4ccccc4)C(C)=C1C3(C)C)[C@]1(OC(C)=O)CO[C@@H]1C[C@@H]2O` [Taxol, paclitaxel, reference compound], the figures for the “Mice with palpable tumor / total mice” value in data set [3] (setting [7]) and in data set [5] were 4/6†† and 2/6, respectively. In addition, the “Tumor volume (cm^3)” value in data set [3] (setting [7]) is 0.01 cm^3; in data set [3] (10 mg/kg iv x7 qd, 14 d), 0.065 ± 0.02 cm^3; in data set [3] (10 mg/kg iv x7 qd, 21 d), 0.249 ± 0.07 cm^3; in data set [3] (10 mg/kg iv x7 qd, 24 d (end)), 0.685 cm^3 and 0.685 ± 0.14 cm^3. In addition, the “TV inhibition rate % T/C” value in data set [3] (10 mg/kg/d iv x7 qd) is listed as 39.05%. The “Tumor weight” value in data set [3] (10 mg/kg/d iv x7 qd) came out at 0.88 ± 0.17 g; in data set [4] (7.5 mg/kg/d iv x5 qd), 1.98 ± 0.14 g; in data set [4] (10 mg/kg/d iv x5 qd), 1.79 ± 0.09 g; in data set [4] (15 mg/kg/d iv x5 qd) it was 1.45 ± 0.14 g. Moreover, the “Body weight of mice” value was 18.1 g and 18.1 ± 1.1 g in data set [3] (10 mg/kg/d iv x7 qd, 0 day (beginning)); 19.7 ± 1 g in data set [3] (10 mg/kg/d iv x7 qd, 7 day). Moreover, the “tumor inhibition rate %” value amounted to 48.84% in data set [3] (10 mg/kg/d iv x7 qd); 30.28% in data set [4] (7.5 mg/kg/d iv x5 qd, vs normal saline control); 36.97% in data set [4] (10 mg/kg/d iv x5 qd, vs normal saline control); 48.94% in data set [4] (15 mg/kg/d iv x5 qd, vs normal saline control).

Source of the values: patent US8334316B2, “Substituted organosulfur compounds and methods of using thereof” (ACEA Biosciences, Inc., priority 2004, dated 2012).
